From paper PMC12828543, “Preclinical drug screen identifies WEE1 inhibitor and vinca alkaloid as a combination treatment concept for Li-Fraumeni syndrome medulloblastoma” (iScience, 2025)
Read-outs that look alike come from different tables or passages of the source.

Tests used:
[1] = tested on: TP53mut SHH-MB patient-derived organoid B062-008; assay: Drug treatment assay in PDOs (72 h, CellTiter-Glo 3D); assay type: cell-based, human; settings: PDO B062-008, single drug; for IC50: Homo sapiens
Description: (§1) Cells were treated with DMSO as negative control and with Staurosporine (10 μM) (BIO-CONNECT BV, cat.no. 62996-74-1) as positive control. Metabolic activity was measured 72h after drug treatment by adding 40 μL of CellTiter-Glo 3D cell viability assay (Promega, cat.no. G9683) to each well, shake for 5 minutes using the Multidrop Combi system dispenser and incubated at room temperature and in the dark for an additional 25 minutes. Thereafter, bioluminescence was measured using the CLARIOstarplus (BMG Labtech) plate reader. Results were normalized to DMSO negative controls (100% viability) and Staurosporine positive controls (0% viability).
(§2) In analysis of the results from PDO lines Synergy finder+ was used and growth curves were generated using R version 4.2.2 (package drc). Presented synergy scores are averages across 3 biological replicates (each with two technical replicates, from which a mean value was calculated).

[2] = tested on: TP53mut SHH-MB patient-derived organoid MED113FH; assay: as above; assay type: cell-based, human; settings: PDO MED113FH, single drug; for IC50: Homo sapiens
Description: as §1, §2

[3] = tested on: TP53mut SHH-MB patient-derived organoid B062-13315; assay: as above; assay type: cell-based, human; settings: PDO B062-13315, single drug; for IC50: Homo sapiens
Description: as §1, §2

[4] = tested on: TP53mut SHH-MB patient-derived organoids (PDOs); assay: Drug treatment assay in PDOs, summary over all three PDO models; assay type: cell-based; settings: Homo sapiens
Description: as §1, §2

[5] = tested on: Trp53+/- LFS mouse model (Trp53tm1Tyj/J); settings: for Survival: Trp53+/- mice, 4-week treatment and 4-week observation period
Description: At the age of 6-8-weeks mice were randomly assigned into 4 treatment groups (3-4 animals/group) without blinding.
4-week treatment period was followed by 4-week observation period to monitor for drug toxicity-related symptoms. Afterwards the animals were sacrificed and organs (brain, liver, spleen and kidney) were extracted. Tissues were fixed for 48 hours in Roti®-Histofix 4 % (cat.no. P087.5, Roth) followed by dehydration in 50% Ethanol. […] For γH2AX (p-S139) staining 4 μm FFPE tissue sections were cut, deparaffinized and re-hydrated. […] Antibody- and H&E-stained specimens were evaluated by the pathologist (T.G.P.G.). Images were taken with the Leica DM3000 LED microscope (10-fold magnification) and analyzed using Fiji v.2.16.0 (Java 8) and R version 4.2.2 (packages ggplot2 and ggsignif).
At the stage of designing experiments, a power analysis was performed for BT084 and LFS_primary models using R version 4.1.0 (type I error: 5%, type II error: 20%). Survival, IVIS readout and weight was analyzed using R version 4.2.2 (packages stat, ggplot2, ggsignif, survival, survminer and stats). Images were analyzed using Fiji v.2.16.0 (Java 8) and R version 4.2.2 (packages ggplot2 and ggsignif).

[6] = tested on: DKFZ-BT084 PDX (LFS-associated SHH-MB), orthotopic in NSG mice; assay: In vivo drug testing in LFS SHH-MB PDX model; design: species or system mouse; settings: adavosertib 60 mg/kg p.o. 5 times/week, vincristine 0.5 mg/kg i.p. once weekly, 4 weeks
Description: Animal experiment permits (G-193/21 and G-135/23) were issued by the Regional Council in Karlsruhe. In in vivo drug treatment and in vivo target dependence experiments female NOD.Cg-Prkdc^scidIl2rg^tm1Wjl/SzJ (NSG) mice were used. Intracranial patient-derived xenograft (PDX) tumor cell injections were performed in 6-8-week old animals. Following LFS-associated SHH-MB PDX models were injected: DKFZ-BT084[86] (relapsed tumor), LFS_primary[78] (gift from Prof. Aurélie Ernst, treatment-naive) and HS231222 (newly-established model, treatment-naive). After tumor detection mice were randomly assigned into 4 treatment groups (4-5 animals/group) without blinding.
LFS_primary[78] (gift from Aurélie Ernst) and HS231222. […] The control group received treatment with solvents only.

UW228-2 [7] = assay: Validation in established cell lines (0.1-10,000 nM, triplicates, 72 h, CellTiter-Glo 2.0); assay type: cell-based, human; settings: for Emax: UW228-2, validation, maximum effect, 0.1-10,000 nM, 72 h; for IC50: UW228-2, metabolic activity
Description: (§3) Following 72-hour exposure cell viability was measured using CellTiter-Glo 2.0 Assay (cat.no. G9241, Promega) and the Spark microplate reader (Tecan).
(§4) DSS3 (single drug screen and validation steps) and Emax (validation step only) were estimated based on four-parameter logistic curves.

SJ-GBM2 [8] = assay: as above; assay type: cell-based, human; settings: for IC50: SJ-GBM2, metabolic activity; for Emax: validation, maximum effect, 0.1-10,000 nM, 72 h
Description: as §3, §4

LFS fibroblasts = assay: Genotoxicity screen, Micronucleus Test (MNT); assay type: cell-based, human; design: key: MNT score = number of micronuclei / number of nuclei; settings: Cmax concentration (or concentration causing 20% decrease of viability), 120 h, median
Description: To evaluate genotoxicity of compounds, the Micronucleus Test (MNT)[96]^,[97] method was used. […] Next, the cells were visualized using ImageXpress Micro 4 High-Content Imaging System (Molecular Devices, LLC) and 4 images for each well were analyzed with CellProfiler version 4.1.3 (the pipeline described in the supplementary information).
The MNT score for a specific compound was calculated according to a following formula: MNTscore=(numberofmicronuclei/numberofnuclei)
Resulting MNT scores were compared to negative (DMSO) and positive (mitomycin C) control scores using Welch t-test (R version 4.2.2, packages stat, ggplot2). If scores were statistically different from positive control, then the compound was classified as non-genotoxic. If scores were statistically different from negative control, then the compound was classified as genotoxic.

[9] = tested on: CDK1 phosphorylation (phospho Y15) in SJ-GBM2 and UW228-2; assay: Adavosertib pharmacodynamic marker (Western blot) in cell lines; assay type: cell-based, human; settings: adavosertib 100 nM, 300 nM for 8 and 24 hours
From the text: Protein concentration of cell lysates were estimated using the Pierce BCA Protein Assay Kit (cat. no. 23225, ThermoFisher Scientific). For detecting CDK1 phosphorylation the following antibodies were used: α-CDK1 (phospho Y15) [BLR101H] (cat.no. ab275958, Abcam), α-Cdk1/Cdk2 (AN21.2) (cat.no. sc-53219, Santa Cruz Biotechnology, Inc.), α-HSP90 (cat.no. 4877, Cell Signaling Technology). Western blot bands were visualized using Amersham ECL Prime Western Blotting Detection System (cat. no. RPN2232SK, GE Healthcare) and quantified using ImageJ (version 1.50b, Wayne Rasband and co., NIH). Post analysis brightness and contrast of presented images was increased by 50%.

SJGBM-2 and UW228-2 = assay: Validation in established cell lines, Emax criterion in both cancer cell lines; assay type: cell-based; settings: Homo sapiens; SJGBM-2 and UW228-2, selection criterion; read-out: maximum effect (Emax) in cancer cell lines
From the text: as §4

orthotopic GBM model = settings: cited from earlier work
[10] = tested on: TP53mut cancer cell lines SJ-GBM2 and UW228-2; assay: Drug combination screen (synergy scores, SynergyFinder+); assay type: cell-based, human; settings: TP53mut brain cancer cell lines
Description: Drugs were tested in combinations in vitro using TP53^mut cancer cell lines SJ-GBM2 and UW228-2. […] Cell metabolic activity was measured in the same way as in the single drug screen (3 technical replicates x min. 3 biological replicates for each condition).
as §2

[11] = Cmax from literature; ref PMID: 32635465; cited from earlier work
UW228-2 [12] = assay: WEE1 siRNA knockdown and vincristine, cell viability after 72 hours; assay type: cell-based; settings: Homo sapiens; UW228-2, 72 hours, vincristine 0.5 nM, compared to control siRNA
Description: (§5) SJ-GBM2 and UW228-2 cells were transfected with ON-TARGETplus Human WEE1 siRNA (SMARTPool, cat.no. L-005050-00, Dharmacon Reagents) using Lipofectamine RNAiMAX Transfection Reagent (cat. no. 13778075, Invitrogen). WEE1 knockdown at protein level was confirmed by Western blot (α-WEE1 antibody [B-11], cat.no. sc-5285, Santa Cruz Biotechnology). After 72 hours cell viability was measured as described in Single drug screening method section. Caspase assay was performed 48 hours after treatment according to manufacturer instructions (cat.no. ab39383, Abcam).
(§6) Western blot bands were quantified using ImageJ (version 1.50b, Wayne Rasband and co., NIH). The readouts from 3 biological replicates were analyzed using R version 4.2.2 (packages ggplot2, DSS, stats) and presented as mean values with standard deviations.

SJ-GBM2 [13] = assay: as above; assay type: cell-based; settings: Homo sapiens; SJ-GBM2, 72 hours, vincristine 0.5 nM, compared to control siRNA
Description: as §5, §6

[14] = tested on: caspase-3 activity in SJ-GBM2 and UW228-2; assay: Caspase-3 assay (fluorometric) 48 hours after treatment; assay type: cell-based, human; settings: SJ-GBM2 and UW228-2, 48 hours
Description: as §5

[15] = mean over three PDOs, metabolic activity, read-out: mean IC50
[16] = range over three PDOs, read-out: IC50 range

| SMILES | IC50 [1] [nM] | DSS [1] | IC50 [2] [nM] | DSS [2] | IC50 [3] [nM] | DSS [3] | IC50 [4, 15] [nM] | IC50 [4, 16] [nM] | Survival [5] [%] | Median lifespan since tumor detection [6] [days] | Emax (UW228-2 [7]; Homo sapiens) [%] | IC50 (UW228-2 [7]; Homo sapiens) [nM] | IC50 (SJ-GBM2 [8]; Homo sapiens) [nM] | Emax (SJ-GBM2 [8]; Homo sapiens) [%] | MNT_median (micronucleus test score) (LFS fibroblasts) | Emax (SJGBM-2 and UW228-2) [%] | also measured |
| --- | --- | --- | --- | --- | --- | --- | --- | --- | --- | --- | --- | --- | --- | --- | --- | --- | --- |
| C=CCn1c(=O)c2cnc(Nc3ccc(N4CCN(C)CC4)cc3)nc2n1-c1cccc(C(C)(C)O)n1 [Adavosertib] | 215 | 8,36 | 167 | 9,53 | 117 | 17,70 | 166 | 117 to 215 | 100 | 9 | 89.1 | 273 | 43.4 | 98.1 | 1,44 | > 50 | levels of CDK1 phosphorylation [9]: reduced levels of CDK1 phosphorylation |
| Cc1cc(Nc2ncc3c(n2)N(C)CN(c2c(Cl)cccc2Cl)C3=O)ccc1C1CCN(C)CC1 [Debio 0123] |  |  |  |  |  |  |  |  |  |  |  |  |  |  |  |  | BBB penetration (orthotopic GBM model): ability to cross BBB; interaction in combination with vinca alkaloid (synergy score) [10]: additive interaction; IC50 (UW228-2 [7]): 270 nM; IC50 (SJ-GBM2 [8]): 147 nM |
| CC[C@]1(O)C[C@H]2CN(CCc3c([nH]c4ccccc34)[C@@](C(=O)OC)(c3cc4c(cc3OC)N(C=O)[C@H]3[C@@](O)(C(=O)OC)[C@H](OC(C)=O)[C@]5(CC)C=CCN6CC[C@]43[C@@H]65)C2)C1 [Vincristine] | 7.24 | 22,69 | 11.9 | 16,96 | 1.38 | 54,34 | 6.8 | 1.38 to 11.9 | 100 | 20.5 | 52.2 | 0.9 | 1.1 | 92.5 | 2,59 | > 50 | Cmax [11]: 36 nM; genotoxicity or organ-specific toxicities ([5]; mouse, in vivo): low to no genotoxicity or organ-specific toxicities; viability at 0.0005 µM (UW228-2 [12]): 80.2%; viability at 0.0005 µM (SJ-GBM2 [13]): 62.9%; caspase-3 activity [14]: did not influence caspase-3 activity |
